{
  "source": "paper PMC10682101",
  "about": "“In vitro pharmacological characterization of standard and new lysophosphatidic acid receptor antagonists using dynamic mass redistribution assay” (Frontiers in Pharmacology, 2023)",
  "key": {"human LPA2 receptor [1]": {"target": "T1, human LPA2 receptor (Homo sapiens, UniProt Q9HBW0)", "T1 sequence (Q9HBW0 whole entry)": "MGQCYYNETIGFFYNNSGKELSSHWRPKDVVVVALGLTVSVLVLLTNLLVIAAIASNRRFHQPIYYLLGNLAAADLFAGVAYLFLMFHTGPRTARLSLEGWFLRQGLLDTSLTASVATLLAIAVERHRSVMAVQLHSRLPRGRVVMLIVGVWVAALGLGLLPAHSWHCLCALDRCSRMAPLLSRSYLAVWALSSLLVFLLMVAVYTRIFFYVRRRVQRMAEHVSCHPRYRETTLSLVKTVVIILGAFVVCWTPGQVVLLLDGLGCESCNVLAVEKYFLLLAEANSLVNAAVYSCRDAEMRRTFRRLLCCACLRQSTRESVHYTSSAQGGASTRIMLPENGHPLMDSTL", "assay": "Dynamic mass redistribution (DMR) assay in CHOLPA2 cells", "conditions": "for DMR effect per se: concentration–response up to highest concentration tested; for DMR response: CHOLPA2 cells, compound 10 μM, mean ± s.e.m.", "protocol": "Confluent cells were sub-cultured using trypsin/EDTA and used for experiments. Cells were seeded at a density of 20,000 cells/well in 30 µL into fibronectin-coated EnspireTM-LC 384-well plates and cultured for 20 h to form a confluent monolayer. On the day of the experiment, the cells were manually washed twice and maintained with assay buffer (HBSS with 20 mM HEPES, 0.01% BSA) for 90 min before DMR experiments. DMR was monitored in real time with a temporal resolution of 44 s throughout the assay. Experiments were performed at 37°C using an EnSight Multimode Plate Reader (PerkinElmer). The agonism protocol was as follows: before addition of the ligand, the DMR signal was measured for 5 min, and the average of the signals recorded during this period was set as the baseline (pm = 0). Compounds are added manually in a volume of 10 µL, and the triggered DMR signals were recorded for 60 min. […] Responses were described in the form of picometer shift over time (seconds) following the subtraction of values from vehicle-treated wells. Maximum picometer (pm) modification (peak) and area under the curve (AUC) were used to determine the agonist response.\nAll data were analyzed using GraphPad Prism 9.4 (La Jolla, CA, United States). Concentration–response curves were fitted using the four-parameter log-logistic equation. Data are expressed in the form mean ± s.e.m. across n experiments performed in duplicate. […] In practice, equiactive concentrations of the agonist in the absence ([A]) and presence ([A’]) of a non-competitive antagonist ([B]) were compared in a double reciprocal plot describing a straight line, and pKB was derived from the equation: pKB = log[(slope—1)/[B]]. […] Maximal effect data were analyzed using the Student’s t-test or a one-way ANOVA followed by Dunnett’s post-hoc test."}, "human LPA1 receptor [2]": {"target": "T2, human LPA1 receptor (Homo sapiens, UniProt Q92633)", "T2 sequence (Q92633 whole entry)": "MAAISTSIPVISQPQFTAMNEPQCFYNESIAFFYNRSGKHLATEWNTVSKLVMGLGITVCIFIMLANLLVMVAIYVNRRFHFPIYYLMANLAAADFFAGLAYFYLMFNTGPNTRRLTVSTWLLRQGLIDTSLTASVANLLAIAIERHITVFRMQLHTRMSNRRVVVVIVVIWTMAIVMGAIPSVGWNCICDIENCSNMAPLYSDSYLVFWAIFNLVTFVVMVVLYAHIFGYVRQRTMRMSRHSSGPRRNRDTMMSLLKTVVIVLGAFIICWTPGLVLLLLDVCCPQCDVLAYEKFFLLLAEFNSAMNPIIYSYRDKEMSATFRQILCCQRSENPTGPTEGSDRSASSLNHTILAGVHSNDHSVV", "assay": "Dynamic mass redistribution (DMR) assay in CHOLPA1 cells", "conditions": "for EC50: Agonism pEC50, CHOLPA1, DMR, negative DMR signal (inverse agonism); for EC50 / Agonism Emax: up to 10 µM (compound 35 up to 1 µM), °inactive at 10 μM; for Shift of the concentration–response curve to LPA: antagonism protocol; for Agonism Emax: negative DMR signal; for DMR response: CHOLPA1 cells, compound 10 μM, mean ± s.e.m.", "protocol": "All data were analyzed using GraphPad Prism 9.4 (La Jolla, CA, United States). Concentration–response curves were fitted using the four-parameter log-logistic equation. Data are expressed in the form mean ± s.e.m. across n experiments performed in duplicate. Agonist potency is expressed in the form pEC50, which is the negative logarithm to base 10 of the agonist molar concentration that produces 50% of the maximal possible effect of that agonist. […] In practice, equiactive concentrations of the agonist in the absence ([A]) and presence ([A’]) of a non-competitive antagonist ([B]) were compared in a double reciprocal plot describing a straight line, and pKB was derived from the equation: pKB = log[(slope—1)/[B]]. […] Maximal effect data were analyzed using the Student’s t-test or a one-way ANOVA followed by Dunnett’s post-hoc test."}, "human LPA2 receptor [3]": {"target": "T1, human LPA2 receptor", "assay": "Calcium mobilization assay in CHOLPA2 cells", "conditions": "CHOLPA2, calcium mobilization; for Effect per se: data not shown"}, "human LPA1 receptor [4]": {"target": "T2, human LPA1 receptor", "assay": "Calcium mobilization assay in CHOLPA1 cells", "conditions": "for Effect per se: 1 µM, data not shown; for Kb: Gaddum method"}, "CHO wild-type cells [5]": {"tested_on": "CHO wild-type cells", "assay": "DMR assay in CHO wild-type cells (control)", "assay_type": "cell-based", "conditions": "for DMR response: CHO cells, compound 10 μM, mean ± s.e.m.", "method": "Confluent cells were sub-cultured using trypsin/EDTA and used for experiments. Cells were seeded at a density of 20,000 cells/well in 30 µL into fibronectin-coated EnspireTM-LC 384-well plates and cultured for 20 h to form a confluent monolayer. On the day of the experiment, the cells were manually washed twice and maintained with assay buffer (HBSS with 20 mM HEPES, 0.01% BSA) for 90 min before DMR experiments. DMR was monitored in real time with a temporal resolution of 44 s throughout the assay. Experiments were performed at 37°C using an EnSight Multimode Plate Reader (PerkinElmer). The agonism protocol was as follows: before addition of the ligand, the DMR signal was measured for 5 min, and the average of the signals recorded during this period was set as the baseline (pm = 0). Compounds are added manually in a volume of 10 µL, and the triggered DMR signals were recorded for 60 min. The antagonism protocol was as follows: antagonists were added manually 25 min before reading the 5 min baseline. […] Responses were described in the form of picometer shift over time (seconds) following the subtraction of values from vehicle-treated wells. Maximum picometer (pm) modification (peak) and area under the curve (AUC) were used to determine the agonist response."}, "LPA1 receptor": {"target": "LPA1 receptor", "conditions": "2017, cited from earlier work"}, "CHO wild-type cells [6]": {"tested_on": "CHO wild-type cells", "assay": "Calcium mobilization assay in CHO wild-type cells (control)", "assay_type": "cell-based", "conditions": "micromolar concentration", "method": "Cells were seeded at a density of 50,000 cells/well in 100 μL into black, clear-bottom 96-well plates. The following day, cells were incubated with medium supplemented with 2.5 mM probenecid, 3 μM of the calcium-sensitive fluorescent dye Fluo-4 AM, and 0.01% pluronic acid for 30 min at 37°C. After the incubation period, the loading solution was aspirated, and 100 μL of HBSS supplemented with 20 mM HEPES, 2.5 mM probenecid, and 500 μM Brilliant Black was added. Serial dilutions of compounds were carried out in HBSS/HEPES (20 mM) buffer containing 0.01% BSA. Cell culture and drug plates were placed into a fluorimetric imaging plate reader (FlexStation II, Molecular Devices, Sunnyvale, CA), and fluorescence changes were measured. Online additions were carried out with a volume of 50 μL/well. […] To facilitate drug diffusion into the wells, the experiments were performed at 37°C, and three cycles of mixing (25 μL from each well moved up and down three times) were performed immediately after injection of antagonists into the wells. Agonist effects were expressed in the form of maximum percentage change over baseline fluorescence. Baseline fluorescence was measured in wells treated with vehicle."}, "[7]": {"tested_on": "human lung fibroblast proliferation", "parameters": "method as in Qian et al., 2012", "conditions": "inhibiting LPA-induced human lung fibroblast proliferation; ref Qian et al., 2012; cited from earlier work"}, "[8]": {"parameters": "method as in Allanore et al., 2018", "conditions": "phase II, diffuse cutaneous systemic sclerosis; ref Allanore et al., 2018; cited from earlier work"}, "[9]": {"conditions": "CHOLPA2, DMR, negative DMR signal, peak, up to 10 µM (compound 35 up to 1 µM), °inactive at 10 μM"}, "[10]": {"conditions": "CHOLPA1, calcium mobilization, *inactive at 0.1 µM"}},
  "note": "Like-named read-outs stand apart in the source and are kept apart here.",
  "data": [
    {"smiles": "Cc1noc(-c2ccc(O[C@H]3CC[C@@H](C(=O)O)CC3)cc2)c1NC(=O)O[C@H](C)c1ccccc1Cl", "note": "[Compound CHI]", "values": [
      {"measurement": "Shift of the concentration–response curve to LPA", "setting": "human LPA2 receptor [1]; CHOLPA2, DMR, antagonism protocol, 1 µM", "result": "did not shift the concentration–response curve to LPA"},
      {"measurement": "DMR effect per se", "setting": "human LPA2 receptor [1]; CHOLPA2, DMR", "result": "inactive"},
      {"measurement": "DMR response", "setting": "human LPA2 receptor [1]", "result": "−55 ± 19", "unit": "pm"},
      {"measurement": "EC50", "setting": "human LPA1 receptor [2]; peak", "result": 309, "unit": "nM"},
      {"measurement": "Shift of the concentration–response curve to LPA", "setting": "human LPA1 receptor [2]; CHOLPA1, DMR, 1 µM", "result": "active as an LPA1 antagonist only in calcium mobilization experiments"},
      {"measurement": "Agonism Emax", "setting": "human LPA1 receptor [2]; CHOLPA1, DMR, peak", "result": "−68 ± 13", "unit": "pm"},
      {"measurement": "DMR response", "setting": "human LPA1 receptor [2]", "result": "−78 ± 18", "unit": "pm"},
      {"measurement": "Effect per se", "setting": "human LPA2 receptor [3]; 1 µM", "result": "inactive"},
      {"measurement": "Shift of the concentration–response curve to LPA", "setting": "human LPA2 receptor [3]; antagonism protocol, 1 µM", "result": "did not shift the concentration–response curve to LPA"},
      {"measurement": "Effect per se", "setting": "human LPA1 receptor [4]; CHOLPA1, calcium mobilization", "result": "inactive"},
      {"measurement": "Kb", "setting": "human LPA1 receptor [4]; pKB, CHOLPA1, calcium mobilization, 1 µM antagonist", "result": 57.5, "unit": "nM"},
      {"measurement": "DMR response", "setting": "CHO wild-type cells [5]", "result": "−4 ± 22", "unit": "pm"},
      {"measurement": "DMR effect per se", "setting": "CHO wild-type cells [5]; CHO wild-type cells, 10 µM", "result": "inactive"}
    ]},
    {"smiles": "CCCCCCCC/C=C\\CCCCCCCC(=O)OC[C@@H](O)COP(=O)([O-])O.[Na+]", "note": "[LPA, Oleoyl-L-α-lysophosphatidic acid sodium salt]", "values": [
      {"measurement": "pEC50 (stimulant effect of LPA)", "setting": "human LPA1 receptor [2]; CHOLPA1, DMR, peak, LPA 0.01 nM–10 µM", "result": "7.16 (6.89–7.43)"},
      {"measurement": "pEC50 (stimulant effect of LPA)", "setting": "human LPA1 receptor [4]; CHOLPA1, calcium mobilization, LPA 0.01 nM–10 µM", "result": "7.25 (7.19–7.31)"},
      {"measurement": "Effect in CHO wild-type cells", "setting": "CHO wild-type cells [5]; DMR, micromolar concentration", "result": "elicited some stimulant effects"},
      {"measurement": "pEC50", "setting": "LPA1 receptor; native LPA1 receptor, ref Sattikar et al.", "result": "~7.5"},
      {"measurement": "pEC50", "setting": "LPA1 receptor; recombinant LPA1 receptor, ref Swaney et al., 2011, Shimizu and Nakayama", "result": "~7.5"},
      {"measurement": "Effect in CHO wild-type cells", "setting": "CHO wild-type cells [6]", "result": "elicited some stimulant effects"}
    ]},
    {"smiles": "Cc1nnn(-c2ccc(-c3ccc(C4(C(=O)O)CC4)cc3)cc2)c1NC(=O)O[C@H](C)c1ccccc1", "note": "[RO 6842262]", "values": [
      {"measurement": "DMR effect per se", "setting": "human LPA2 receptor [1]; CHOLPA2, DMR", "result": "inactive per se, or slightly active only at the higher concentration tested"},
      {"measurement": "Agonism Emax", "setting": "human LPA2 receptor [1]; [9]", "result": "Inactive°"},
      {"measurement": "Agonism pEC50", "setting": "human LPA2 receptor [1]; [9]", "result": "Inactive°"},
      {"measurement": "DMR response", "setting": "human LPA2 receptor [1]", "result": "3 ± 21", "unit": "pm"},
      {"measurement": "EC50", "setting": "human LPA1 receptor [2]; peak", "result": 49, "unit": "nM"},
      {"measurement": "Shift of the concentration–response curve to LPA", "setting": "human LPA1 receptor [2]; CHOLPA1, DMR, 1 µM", "result": "shifted the concentration–response curve to LPA to the right"},
      {"measurement": "Agonism Emax", "setting": "human LPA1 receptor [2]; CHOLPA1, DMR, peak", "result": "−80 ± 16", "unit": "pm"},
      {"measurement": "Effect on LPA maximal effect", "setting": "human LPA1 receptor [2]; CHOLPA1, DMR, tested as antagonist, 1 µM", "result": "without changing the maximal effect"},
      {"measurement": "DMR response", "setting": "human LPA1 receptor [2]", "result": "−66 ± 16", "unit": "pm"},
      {"measurement": "Effect per se", "setting": "human LPA2 receptor [3]; 1 µM", "result": "did not produce any effect per se"},
      {"measurement": "Agonism Emax", "setting": "human LPA2 receptor [3]; #inactive at 1 μM", "result": "Inactive^#"},
      {"measurement": "Agonism pEC50", "setting": "human LPA2 receptor [3]; #inactive at 1 μM", "result": "Inactive^#"},
      {"measurement": "Kb", "setting": "human LPA1 receptor [4]; Antagonism pKB (pKB/pA2), CHOLPA1, calcium mobilization, LPA curve in absence and presence of 0.1 µM antagonist", "result": 2.04, "unit": "nM"},
      {"measurement": "Effect per se", "setting": "human LPA1 receptor [4]; CHOLPA1, calcium mobilization", "result": "did not produce any effect per se"},
      {"measurement": "Agonism Emax", "setting": "human LPA1 receptor [4]; [10]", "result": "Inactive*"},
      {"measurement": "Agonism pEC50", "setting": "human LPA1 receptor [4]; [10]", "result": "Inactive*"},
      {"measurement": "Shift of the concentration–response curve to LPA", "setting": "human LPA1 receptor [4]; CHOLPA1, calcium mobilization, antagonism protocol (compound 35, compound 20 at 1 µM)", "result": "shifted the concentration–response curve to LPA to the right"},
      {"measurement": "Effect on LPA maximal effect", "setting": "human LPA1 receptor [4]; CHOLPA1, calcium mobilization, tested as antagonist", "result": "reduced the LPA maximal effect in a concentration-dependent manner"},
      {"measurement": "LPA1 selectivity (vs. LPA2)", "setting": "human LPA1 receptor [4]; assay not specified", "result": "> 30", "unit": "fold"},
      {"measurement": "DMR response", "setting": "CHO wild-type cells [5]", "result": "−36 ± 12", "unit": "pm"},
      {"measurement": "Potency relative to KI 16425", "setting": "[7]", "result": 10, "unit": "fold"}
    ]},
    {"smiles": "COc1ccc(C(=O)NC2(C(=O)O)Cc3ccccc3C2)cc1OCCc1cccc(C)c1", "note": "[SAR-100842]", "values": [
      {"measurement": "Improvement in the modified Rodnan skin thickness score", "setting": "[8]", "result": "not statistically significant"},
      {"measurement": "Tolerability", "setting": "[8]", "result": "well-tolerated"}
    ]}
  ]
}
